Results taken from ChEMBL document CHEMBL5260802, “Discovery of Novel Allosteric HCV NS5B Inhibitors. 2. Lactam-Containing Thiophene Carboxylates” (ACS Med Chem Lett, 2017).

Experiments:
Hepatitis C virus [1] = assay: Antiviral activity against Hepatitis C virus subtype 1b infected in Huh-7 cells transfected with HCV subgenomic replicon for NS5B polymerase assessed as inhibition of viral replication measured upto 96 hrs in presence of 40% of human serum by luciferase reporter gene assay; assay type: functional, organism-based, Hepacivirus hominis; details: Huh-7, 96 h
[2] = Protein binding in rat plasma at 1 uM incubated for 6 hrs by LC-MS/MS based rapid equilibrium dialysis method; assay type: ADME, cell-free; details: read-out: PPB (converted)
[3] = AUC (0 to infinity) in Sprague-Dawley rat at 1.5 mg/kg,po and measured after 72 hrs by LC/MS/MS analysis; assay type: ADME, organism-based; set-up: dose 1.5 mg/kg, time 72 hrs, route po; details: in vivo
[4] = Unbound AUC (0 to infinity) in Sprague-Dawley rat at 1.5 mg/kg,po and measured after 72 hrs by LC/MS/MS analysis; assay type: ADME, organism-based; details: in vivo
[5] = Half life in Sprague-Dawley rat at 1.5 mg/kg,po and measured after 72 hrs by LC/MS/MS analysis; assay type: ADME, organism-based; details: in vivo
[6] = Unbound AUC (0 to infinity) in Sprague-Dawley rat at 0.5 mg/kg,iv and measured after 72 hrs by LC/MS/MS analysis; assay type: ADME, organism-based; details: in vivo
PXR [7] = target: T1, PXR (Homo sapiens, UniProt O75469); assay: Activation of human PXR expressed in human DPX2 co-expressing luciferase reporter gene assessed as fold increase incubated for 24 hrs by luciferase assay relative to control; assay type: cell-based; details: DPX2 cells expressing human PXR and luciferase reporter gene, read-out: FC
T1 sequence (O75469 whole entry): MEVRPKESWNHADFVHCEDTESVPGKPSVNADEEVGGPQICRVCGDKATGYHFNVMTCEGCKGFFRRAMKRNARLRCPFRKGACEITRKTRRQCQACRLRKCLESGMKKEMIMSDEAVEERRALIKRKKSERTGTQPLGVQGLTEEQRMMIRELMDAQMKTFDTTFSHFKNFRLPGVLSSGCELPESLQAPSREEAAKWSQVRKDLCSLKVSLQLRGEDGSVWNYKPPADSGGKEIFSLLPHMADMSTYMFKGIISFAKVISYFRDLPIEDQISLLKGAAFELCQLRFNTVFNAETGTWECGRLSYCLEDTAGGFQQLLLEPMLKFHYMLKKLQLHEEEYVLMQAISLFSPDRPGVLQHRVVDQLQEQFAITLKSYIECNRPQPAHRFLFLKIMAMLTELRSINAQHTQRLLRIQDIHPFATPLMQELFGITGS

[8] = target: T2, Nuclear receptor subfamily 1 group I member 2 (Homo sapiens, UniProt O75469); assay: Activation of human PXR expressed in human DPX2 co-expressing luciferase reporter gene incubated for 24 hrs by luciferase assay; assay type: cell-based
T2 sequence (O75469 whole entry): T1 sequence (O75469 whole entry)

[9] = Volume of distribution at steady state in Sprague-Dawley rat at 0.5 mg/kg,iv and measured after 72 hrs by LC/MS/MS analysis; assay type: ADME, organism-based; details: in vivo, read-out: Vdss
PXR [10] = target: T1, PXR; assay: Activation of human PXR expressed in human DPX2 co-expressing luciferase reporter gene assessed as maximum efficacy incubated for 24 hrs by luciferase assay relative to control; assay type: cell-based; details: DPX2 cells expressing human PXR and luciferase reporter gene
[11] = AUC (0 to infinity) in Sprague-Dawley rat at 0.5 mg/kg,iv and measured after 72 hrs by LC/MS/MS analysis; assay type: ADME, organism-based; set-up: time 72 hrs, dose 0.5 mg/kg, route iv; details: in vivo
[12] = Cytotoxicity against human Huh-7 cells transfected with HCV subgenomic replicon for NS5B polymerase assessed as reduction in cell viability; assay type: toxicity, cell-based
[13] = Cmax in Sprague-Dawley rat at 1.5 mg/kg,po and measured after 72 hrs by LC/MS/MS analysis; assay type: ADME, organism-based; set-up: dose 1.5 mg/kg, time 72 hrs, route po; details: in vivo
[14] = Unbound clearance in Sprague-Dawley rat at 0.5 mg/kg,iv and measured after 72 hrs by LC/MS/MS analysis; assay type: ADME, organism-based; details: in vivo
Hepatitis C virus [15] = assay: Antiviral activity against Hepatitis C virus subtype 1b infected in Huh-7 cells transfected with HCV subgenomic replicon for NS5B polymerase assessed as inhibition of viral replication measured upto 96 hrs by luciferase reporter gene assay; assay type: functional, organism-based, Hepacivirus hominis; details: for IC50: Huh-7, 96 h; for IC90: Huh-7, time <= 96 hrs
[16] = Half life in Sprague-Dawley rat at 0.5 mg/kg,iv and measured after 72 hrs by LC/MS/MS analysis; assay type: ADME, organism-based; details: in vivo
[17] = Oral bioavailability in Sprague-Dawley rat at 1.5 mg/kg and measured after 72 hrs by LC/MS/MS analysis; assay type: ADME, organism-based; details: in vivo
[18] = Microsomal stability in human liver microsomes assessed as parent compound remaining at 1 uM and measured after 30 mins in presence of NADPH by LC/MS/MS analysis; assay type: ADME, Microsome; details: 0.5 h
Cytochrome P450 3A4 = Cytochrome P450 3A4 (Homo sapiens, UniProt P08684); assay: Inhibition of CYP3A4 in human liver microsomes incubated for 10 mins in presence of NADPH by LC/MS/MS analysis; assay type: ADME, Microsome
Cytochrome P450 2C9 = Cytochrome P450 2C9 (Homo sapiens, UniProt P11712); assay: Inhibition of CYP2C9 in human liver microsomes incubated for 10 mins in presence of NADPH by LC/MS/MS analysis; assay type: ADME, Microsome
[19] = Microsomal stability in rat liver microsomes assessed as parent compound remaining at 1 uM and measured after 30 mins in presence of NADPH by LC/MS/MS analysis; assay type: ADME, Microsome; details: 0.5 h
[20] = Protein binding in human plasma at 1 uM incubated for 6 hrs by LC-MS/MS based rapid equilibrium dialysis method; assay type: ADME, cell-free; details: read-out: PPB
Cytochrome P450 2D6 = Cytochrome P450 2D6 (Homo sapiens, UniProt P10635); assay: Inhibition of CYP2D6 in human liver microsomes incubated for 10 mins in presence of NADPH by LC/MS/MS analysis; assay type: ADME, Microsome
[21] = Cmax in Sprague-Dawley rat at 3 mg/kg,po and measured after 72 hrs by LC/MS/MS analysis; assay type: ADME, organism-based; set-up: time 72 hrs, dose 3 mg/kg, route po; details: in vivo
[22] = Unbound AUC (0 to infinity) in Sprague-Dawley rat at 3 mg/kg,po and measured after 72 hrs by LC/MS/MS analysis; assay type: ADME, organism-based; details: in vivo
[23] = Clearance in Sprague-Dawley rat at 1 mg/kg,iv and measured after 72 hrs by LC/MS/MS analysis; assay type: ADME, organism-based; details: in vivo
[24] = Half life in Sprague-Dawley rat at 3 mg/kg,po and measured after 72 hrs by LC/MS/MS analysis; assay type: ADME, organism-based; details: in vivo
[25] = Oral bioavailability in Sprague-Dawley rat at 3 mg/kg and measured after 72 hrs by LC/MS/MS analysis; assay type: ADME, organism-based; details: in vivo
[26] = Unbound AUC (0 to infinity) in Sprague-Dawley rat at 1 mg/kg,iv and measured after 72 hrs by LC/MS/MS analysis; assay type: ADME, organism-based; details: in vivo
[27] = AUC (0 to infinity) in Sprague-Dawley rat at 1 mg/kg,iv and measured after 72 hrs by LC/MS/MS analysis; assay type: ADME, organism-based; set-up: time 72 hrs, dose 1 mg/kg, route iv; details: Sprague-Dawley, in vivo
[28] = Unbound clearance in Sprague-Dawley rat at 1 mg/kg,iv and measured after 72 hrs by LC/MS/MS analysis; assay type: ADME, organism-based; details: in vivo
[29] = Half life in Sprague-Dawley rat at 1 mg/kg,iv and measured after 72 hrs by LC/MS/MS analysis; assay type: ADME, organism-based; details: in vivo
[30] = AUC (0 to infinity) in Sprague-Dawley rat at 3 mg/kg,po and measured after 72 hrs by LC/MS/MS analysis; assay type: ADME, organism-based; set-up: time 72 hrs, dose 3 mg/kg, route po; details: in vivo
[31] = Volume of distribution at steady state in Sprague-Dawley rat at 1 mg/kg,iv and measured after 72 hrs by LC/MS/MS analysis; assay type: ADME, organism-based; details: in vivo, read-out: Vdss

Cytochrome P450 2C9, sequence (P11712 whole entry): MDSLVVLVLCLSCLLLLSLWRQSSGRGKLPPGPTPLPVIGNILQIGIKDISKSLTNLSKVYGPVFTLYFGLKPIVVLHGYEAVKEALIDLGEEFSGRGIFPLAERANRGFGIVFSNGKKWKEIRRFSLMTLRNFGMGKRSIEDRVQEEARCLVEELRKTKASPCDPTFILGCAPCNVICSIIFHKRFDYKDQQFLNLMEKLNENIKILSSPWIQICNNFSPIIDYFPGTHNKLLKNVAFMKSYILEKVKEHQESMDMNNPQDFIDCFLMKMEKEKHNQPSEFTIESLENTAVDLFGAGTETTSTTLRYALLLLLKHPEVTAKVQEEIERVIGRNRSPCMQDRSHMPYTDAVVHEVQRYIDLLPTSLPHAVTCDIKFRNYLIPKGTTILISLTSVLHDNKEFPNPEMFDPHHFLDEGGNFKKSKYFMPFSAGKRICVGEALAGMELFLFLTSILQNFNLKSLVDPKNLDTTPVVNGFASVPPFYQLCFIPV
Cytochrome P450 2D6, sequence (P10635 whole entry): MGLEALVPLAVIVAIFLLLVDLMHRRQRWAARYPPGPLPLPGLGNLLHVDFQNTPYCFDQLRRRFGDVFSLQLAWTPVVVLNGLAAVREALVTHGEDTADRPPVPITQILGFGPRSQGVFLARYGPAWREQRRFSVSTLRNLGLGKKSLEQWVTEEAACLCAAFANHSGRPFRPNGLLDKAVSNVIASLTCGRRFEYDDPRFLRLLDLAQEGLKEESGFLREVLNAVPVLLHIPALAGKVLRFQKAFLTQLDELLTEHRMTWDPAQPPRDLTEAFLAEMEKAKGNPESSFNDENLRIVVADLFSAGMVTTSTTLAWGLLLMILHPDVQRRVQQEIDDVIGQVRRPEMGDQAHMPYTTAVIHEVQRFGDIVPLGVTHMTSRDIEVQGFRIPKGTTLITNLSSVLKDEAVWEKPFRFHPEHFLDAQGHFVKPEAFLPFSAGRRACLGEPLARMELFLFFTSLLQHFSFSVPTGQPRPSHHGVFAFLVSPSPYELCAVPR
Cytochrome P450 3A4, sequence (P08684 whole entry): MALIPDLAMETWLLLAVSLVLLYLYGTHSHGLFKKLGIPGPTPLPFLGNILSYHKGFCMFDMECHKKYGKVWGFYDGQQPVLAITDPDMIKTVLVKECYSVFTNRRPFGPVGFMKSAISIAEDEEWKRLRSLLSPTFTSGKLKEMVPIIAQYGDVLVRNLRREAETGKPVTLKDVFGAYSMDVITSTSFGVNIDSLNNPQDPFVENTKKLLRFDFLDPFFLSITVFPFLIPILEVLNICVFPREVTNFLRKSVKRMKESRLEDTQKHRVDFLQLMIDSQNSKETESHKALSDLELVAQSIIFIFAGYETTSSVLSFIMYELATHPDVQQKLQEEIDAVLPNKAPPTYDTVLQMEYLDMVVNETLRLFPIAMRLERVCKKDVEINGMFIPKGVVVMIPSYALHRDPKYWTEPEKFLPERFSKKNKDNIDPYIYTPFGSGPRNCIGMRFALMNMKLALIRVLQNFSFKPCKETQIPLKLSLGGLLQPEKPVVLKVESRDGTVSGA

Compound | IC50 (Hepatitis C virus [1]) [nM] | fraction unbound at 6 h, 1 µM [2] | AUC(0-inf) [3] [ng·h/mL] | fAUC [4] [ng·h/mL] | half-life [5] [h] | fAUC [6] [ng·h/mL] | fold induction at 24 h (PXR [7]) | EC50 [8] [nM] | Vd [9] [L/kg] | Emax at 24 h (PXR [10]) [%] | AUC [11] [ng·h/mL] | CC50 [12] [nM] | Cmax [13] [ng/mL] | CL free [14] [mL/min/kg] | IC50 (Hepatitis C virus [15]) [nM] | IC90 (Hepatitis C virus [15]) [nM] | half-life [16] [h] | bioavailability [17] [%] | also measured
CN1CCC[C@@H](N(c2cc(C#CC(C)(C)C)sc2C(=O)O)C(=O)[C@H]2CC[C@H](C)CC2)C1=O | 105 | 0.0004 | 24400 | 9.76 | 6.13 | 10.2 | 7.3 | 20400 | 0.221 | 28 | 25400 | > 20000 | 2540 | 2980 | 10 | 44 | 5.57 | 32 | 
C[C@@H](C(=O)N(C)C)N(c1cc(C#CC(C)(C)C)sc1C(=O)O)C(=O)[C@H]1CC[C@H](C)CC1 | 49 |  |  |  |  |  |  |  |  |  |  | > 20000 |  |  | 5 | 24 |  |  | 
CN1CCC[C@H](N(c2cc(C#CC(C)(C)C)sc2C(=O)O)C(=O)[C@H]2CC[C@H](C)CC2)C1=O | 24 | 0.011 | 6390 | 70.3 | 4.8 | 96.5 | 15.1 | 17300 | 1.17 | 63 | 8770 | > 20000 | 751 | 755 | 3 | 8 | 6.68 | 24 | Stability [18]: Stable; IC50 (Cytochrome P450 3A4): > 30000 nM; IC50 (Cytochrome P450 2C9): > 30000 nM; Stability [19]: Stable; fraction unbound at 6 h, 1 µM [20]: 0.01; IC50 (Cytochrome P450 2D6): > 30000 nM
CN1CCCC[C@@H](N(c2cc(C#CC(C)(C)C)sc2C(=O)O)C(=O)[C@H]2CC[C@H](C)CC2)C1=O | 156 | 0.002 |  |  |  |  |  | > 30000 |  | 16 |  | > 20000 |  |  | 29 | 63 |  |  | Cmax [21]: 589 ng/mL; fAUC [22]: 7.06 ng·h/mL; clearance [23]: 15.9 mL/min/kg; half-life [24]: 4.31 h; bioavailability [25]: 122%; fAUC [26]: 2.26 ng·h/mL; AUC(0-inf) [27]: 1130 ng·h/mL; CL free [28]: 7950 mL/min/kg; half-life [29]: 2.79 h; AUC(0-inf) [30]: 3530 ng·h/mL; Vd [31]: 1.05 L/kg
CC(C)(C)C#Cc1cc(N(C(=O)[C@H]2CC[C@H](C)CC2)[C@H]2CC[C@H](O)CC2)c(C(=O)O)s1 [LOMIBUVIR] | 203 |  |  |  |  |  |  |  |  |  |  | > 20000 |  |  | 25 | 97 |  |  | 
